Results published in US20090068719A1, “IMMUNOASSAYS, HAPTENS, IMMUNOGENS AND ANTIBODIES FOR ANTI-HIV THERAPEUTICS” (priority 2003, published 2009).

Key:
[1] = human, in vivo; cited from earlier work
HIV = settings: cited from earlier work
Anti-(D2)2 [2] = experiment: Specificity of the lopinavir immunoassay (cross-reactivity); format: binding, rabbit; settings: crossreactant 10 μg/mL + 5 μg/mL Lopinavir in human serum
Experimental: An immunoassay for lopinavir was conducted on the Cobas Mira Chemistry Analyzer (Roche). […] The specificity of the immunoassay was evaluated by adding potentially crossreactant drugs to human serum and determining the increase in the apparent concentration as a result of the presence of crossreactant. […] Each sample was assayed in duplicate. Testing was performed on the Cobas Mira analyzer. The percentage concentration above 5 μg/mL of lopinavir was calculated for each crossreactant.

Anti-(D2)2 [3] = experiment: Homogeneous enzyme immunoassay for lopinavir, standard curve; format: binding, rabbit; settings: Enzyme Conjugate (D2)/G6PDH Reagent
From the text: Enzyme Conjugate (D2)/G6PDH and Antibody Anti-(D2)2 were selected as exemplary materials for the development of a homogeneous enzyme immunoassay for the anti-HIV therapeutic lopinavir. Enzyme Conjugate (D2)/G6PDH Reagent, as described in Example 45, was used. Also antibody Anti-(D2)2 was used in this Example as part of an antibody reagent (“Anti-(D2)2 Antibody Reagent”) further comprising nicotinamide adenine dinucleotide, glucose-6-phosphate, sodium chloride, bulking agent, surfactant, and preservatives.
An immunoassay for lopinavir was conducted on the Cobas Mira Chemistry Analyzer (Roche). On the analyzer, 4 μL of sample plus 61 μL water were incubated for 300 sec with 150 μL of Anti-(D2)2 Antibody Reagent. Subsequently, 75 μL of the Enzyme Conjugate (D2)/G6PDH Reagent was added. After 25 sec incubation, enzyme activity was monitored by following the production of NADH spectrophotometrically at 340 nm for 50 sec.
A series of known concentrations of lopinavir standards (ranging from 0 to 10 μg/mL) were prepared gravimetrically in MES (2-(N-Morpholino)ethanesulfonic acid, 0.01 M, pH 5.5) formulated with EDTA, protein additive, detergent, antiform agent, and preservative. Similarly, quality control samples were prepared (1.0 and 5.0 μg/mL).
Lopinavir was dissolved in methanol to give a stock solution of 1000 μg/mL. Synthetic buffered calibrator matrix 10 mL aliquots were spiked to give lopinavir standards with concentrations shown in Table 4. A series of Anti-(D2)2 Antibody Reagents were prepared by adding antibody to antibody/substrate diluent. Each antibody/substrate reagent was assayed with Enzyme Conjugate (D2)/G6PDH Reagent. Calibration curves were generated on the Cobas Mira by assaying each level in duplicate.

[4] = human; cited from earlier work
[5] = rats or dogs; cited from earlier work
[6] = rat, dog, and human primary hepatocytes; cited from earlier work

Structure (SMILES) | Metabolite identified in urine [1] [%] | Percent Increase in Apparent Lopinavir Conc. above 5 μg/mL (Anti-(D2)2 [2]) [%] | also measured
Cc1cc(OC2OC(C(=O)O)C(O)C(O)C2O)nc2c1NC(=O)c1cccnc1N2C1CC1 (stereo not shown) [2-hydroxynevirapine glucuronide] | 18.6 | – | –
Cc1c(OC2OC(C(=O)O)C(O)C(O)C2O)cnc2c1NC(=O)c1cccnc1N2C1CC1 (stereo not shown) [3-hydroxynevirapine glucuronide] | 25.7 | – | –
Cc1c(O)cnc2c1NC(=O)c1cccnc1N2C1CC1 [3-hydroxynevirapine] | 1.2 | – | –
COc1c(O)ccc(C(=O)N[C@@H](CSc2ccccc2)[C@H](O)CN2C[C@H]3CCCC[C@H]3C[C@H]2C(=O)NC(C)(C)C)c1C [3′-methoxy-4′-hydroxynelfinavir] | – | – | EC50 relative to nelfinavir (HIV): fivefold higher
O=C1Nc2c(C(=O)O)ccnc2N(C2CC2)c2ncccc21 [4-carboxy-nevirapine] | 2.4 | – | –
Cc1ccnc2c1NC(=O)c1cc(OC3OC(C(=O)O)C(O)C(O)C3O)cnc1N2C1CC1 (stereo not shown) [8-hydroxynevirapine glucuronide] | 1.3 | – | –
O=C1Nc2c(COC3OC(C(=O)O)C(O)C(O)C3O)ccnc2N(C2CC2)c2ncccc21 (stereo not shown) [12-hydroxynevirapine glucuronide] | 23.7 | – | –
O=C1Nc2c(CO)ccnc2N(C2CC2)c2ncccc21 [12-hydroxynevirapine] | 0.6 | – | –
CC(C)CN(C[C@@H](O)[C@H](Cc1ccccc1)NC(=O)O[C@H]1CCOC1)S(=O)(=O)c1ccc(N)cc1 [Amprenavir, amprenavir] | – | 1 | –
O=C1Nc2ccc(Cl)cc2[C@@](C#CC2CC2)(C(F)(F)F)O1 [Efavirenz, efavirenz] | – | 0 | –
CC(C)(C)NC(=O)[C@@H]1CN(Cc2cccnc2)CCN1C[C@@H](O)C[C@@H](Cc1ccccc1)C(=O)N[C@H]1c2ccccc2C[C@H]1O [Indinavir, indinavir] | – | 0 | –
Cc1cccc(C)c1OCC(=O)N[C@@H](Cc1ccccc1)[C@@H](O)C[C@H](Cc1ccccc1)NC(=O)[C@H](C(C)C)N1CCCNC1=O [Lopinavir, lopinavir] | – | – | Reaction Rate (Anti-(D2)2 [3]; Lopinavir 0.5 μg/mL): 311.1 mA/min; Reaction Rate (Anti-(D2)2 [3]; Lopinavir 1.0 μg/mL): 338.9 mA/min; Reaction Rate (Anti-(D2)2 [3]; Lopinavir 2.5 μg/mL): 390.7 mA/min; Reaction Rate (Anti-(D2)2 [3]; Lopinavir 5.0 μg/mL): 427.0 mA/min; Reaction Rate (Anti-(D2)2 [3]; Lopinavir 10.0 μg/mL): 457.1 mA/min; Metabolism by liver microsomes [4]: metabolized very extensively and rapidly
Cc1c(O)cccc1C(=O)N[C@@H](CSc1ccccc1)[C@H](O)CN1C[C@H]2CCCC[C@H]2C[C@H]1C(=O)NC(C)(C)C [Nelfinavir, nelfinavir] | – | 1 | –
CC(C)c1nc(CN(C)C(=O)N[C@H](C(=O)N[C@@H](Cc2ccccc2)C[C@H](O)[C@H](Cc2ccccc2)NC(=O)OCc2cncs2)C(C)C)cs1 [Ritonavir, ritonavir] | – | 0 | –
CC(C)(C)NC(=O)[C@@H]1C[C@@H]2CCCC[C@@H]2CN1C[C@@H](O)[C@H](Cc1ccccc1)NC(=O)[C@H](CC(N)=O)NC(=O)c1ccc2ccccc2n1 [Saquinavir, saquinavir] | – | 1 | –
Cc1ccnc2c1NC(=O)c1cccnc1N2C1CC1 [nevirapine] | – | – | Fraction of the dose excreted in urine as parent compound [1]: 2.7%; Mean plasma elimination half-life, NVP [1]: 20.0 h; Parent compound share of circulating radioactivity [1]: 75%
CCC[C@@]1(CCc2ccccc2)CC(O)=C([C@H](CC)c2cccc(NS(=O)(=O)c3ccc(C(F)(F)F)cn3)c2)C(=O)O1 [tipranavir] | – | – | Plasma metabolic profile [5]: only the parent drug; Metabolic stability in hepatocyte incubations [6]: stable
